Source: patent publication US11884708B2, “Stapled peptide inhibitors of nemo as potential anti-inflammatory and anti-cancer drugs” (INSTITUT PASTEUR, priority 2015, dated 2024)
Where a SMILES comes first, the peptide text is derived from it. Bridges are numbered along the chain shown (N, C = ends). [ ]: non-standard residue; d: D form. The star is where a group is joined. BODIPYFLEthylmaleimide = Cc1cc(C)n2c1C=C1C=CC(CCC(=O)NCCN3C(=O)CC(*)C3=O)=[N+]1[B-]2(F)F; Succinimide(1-Et,3-yl) = CCN1C(=O)CC(*)C1=O; R8 = C=CCCCCCC[C@@](C)(N)C(=O)O; S5 = C=CCCC[C@](C)(N)C(=O)O

Experiments:
circular dichroism = conditions: 10 mM sodium phosphate; pH 7; 1 °C; 50 uM
CC2-LZ domain of NEMO = CC2-LZ domain of NEMO (Mus musculus, UniProt O88522); assay: Fluorescence anisotropy/polarization binding assay
CC2-LZ domain of NEMO, sequence (O88522 242-343 limits assumed): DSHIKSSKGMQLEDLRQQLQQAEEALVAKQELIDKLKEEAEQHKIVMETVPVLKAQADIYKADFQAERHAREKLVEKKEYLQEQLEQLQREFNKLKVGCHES

NF-κB pathway = NF-κB pathway (Mus musculus, UniProt O88522); assay: NF-κB inhibition assay, LPS-stimulated 70Z3-C3 lacZ reporter cells; type: cell-based; conditions: for IC 50 NF-κB inhibition: 70Z3-C3 cells, 2 h peptide then LPS 4 h, N.I = No inhibition observed
NF-κB pathway, sequence (O88522 whole entry): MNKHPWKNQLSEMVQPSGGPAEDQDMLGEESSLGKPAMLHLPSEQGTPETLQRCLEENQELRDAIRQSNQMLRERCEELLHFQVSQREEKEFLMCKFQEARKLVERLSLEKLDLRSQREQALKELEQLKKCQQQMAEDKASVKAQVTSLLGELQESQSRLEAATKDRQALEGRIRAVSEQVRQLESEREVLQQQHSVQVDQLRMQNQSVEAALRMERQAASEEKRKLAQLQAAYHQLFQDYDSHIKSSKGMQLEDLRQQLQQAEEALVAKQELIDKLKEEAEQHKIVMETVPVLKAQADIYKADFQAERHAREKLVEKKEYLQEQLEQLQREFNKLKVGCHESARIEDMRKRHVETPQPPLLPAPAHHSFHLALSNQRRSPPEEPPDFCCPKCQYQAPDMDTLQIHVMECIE
Excerpt: The stable cell line of pre-B lymphocyte 70Z3-C3 cells expressing the lacZ reporter gene under the control of NF-κB was previously described. OCI-Ly3 (ABC-DLBCL, MALT1 dependent) and OCI-Ly7 (GCB-DLBCL). U2932 (ABC-DLBCL, MALT1 independent) were purchased from DSMZ (Deutsche Sammlung von Mikroorganismen and Zellkulturen) and HLY1 (ABC-DLBCL, MALT1 independent). Jurkat T-cells were obtained after transduction of lentiviruses containing a NF-κB reporter luciferase gene as previously described. All cell lines were grown in RPMI 1640 medium supplemented with 10% FBS, 10 μg/ml of streptomycin, 10 U/ml of penicillin and kept at 37° C., in a 5% CO2 humidified incubator. 0.05 mM of β-mercaptoethanol was added for 70Z3-C3. Primary and secondary antibodies were as following: polyclonal rabbit anti NF-κB p65, (sc-372, Santa Cruz Biotechnology, Inc) Alexa-488 coupled goat anti-rabbit IgG1 (Invitrogen) NF-κB inhibition assay was almost similar to those previously described in [1], except that luminescence data were monitored with a Centro XS^3, LB960 luminometer (Berthold technologies.), which is more sensitive. All experiments were performed in duplicates in 96-well plates. […] After 4 h incubation, cells were centrifuged 7 min at 400×g, at 4° C.

[1] = tested on: OCI-Ly3 (ABC-DLBCL, MALT1 dependent); assay: Cell death assay (CellTiter-Blue resazurin); type: cell-based, human; conditions: OCI-Ly3, 48 h
Protocol: The CellTiter-Blue® Cell Viability kit assay purchased from Promega was used to assess the cell death induced by NEMO stapled peptides in ABC- and GCB-DLBCL cell lines. […] Cells were considered 100% death when the fluorescence intensity value was the same as the one with the medium alone or with the cells treated with the cycloheximide protein synthesis inhibitor at 25 μM (Sigma Aldrich).
For each time point measurement 100 μl of cell samples were withdrawn at different incubation times (7 h, 24 h and 48 h) and subjected to resazurin assay for one hour at 37° C. in the CO2 incubator by adding and mixing for 10 sec 20 μl of resazurin. Fluorescence measurements were performed with a TECAN infinite F500 instrument at 560 nm excitation wavelength and 590 nm emission wavelength. Viability of cells at time 0 was determined just before adding compound and all experiments were performed in duplicate.
The percentage of cell death was calculated according to the following formula: (1−((RFUobs−blank)/(RFU100% viability−blank))*100), where RFUobs corresponds to the cells viability observed in the presence of compound, RFU100% viability, the initial cells viability and blank the background fluorescence measured using the medium alone.
The EC50 value was calculated by plotting the percentage of cell death as function of the compound concentration and fitting the experimental curve with the following formula: (A*P0)/(EC50+P0), where A is the amplitude of fluorescence, P0 is the peptide concentration.
To compare the inhibition efficiency of BA-UBI-SAHND306-Q313 with IKK inhibitors (MLN120B, MedChem Express) or IKKα/β inhibitor (TPCA1, R&D systems), 25,000 DLBCL cells (OCI-Ly3) were incubated for 7 h with an increasing concentration of IKK inhibitors ranging from 0 to 50 μM, and the amount of cell death was then determined using CellTiter-Blue® Cell Viability kit assay. For the MI-2 MALT1 inhibitor (Fontan et al., 2012, Cancer cell 22, 812-824), similar experiments were carried out in MALT dependent (OCI-Ly3) and independent (HLY1) DLBCL cells using a 0-25 μM range.

[2] = CD spectroscopy, α-helical content; type: physicochemical; conditions: 50 μM peptide, phosphate buffer pH 7.0, UBI in TFE taken as 100%
[3] = Temperature-induced denaturation followed by CD; type: physicochemical; conditions: 30 μM or 300 μM, ΔCp ≈ 0
70Z3-C3 cells = assay: Cellular uptake of BODIPY-labeled peptides by FACS; type: cell-based; conditions: 10 μM labeled peptide, 2 h, 37° C.
Protocol: 2.2×10^5 cells in 100 μl of 70Z3-C3 were incubated with either 10 μM or with various doses of 10 μM, 5 μM and 1 μM of labeled-peptides at 37° C., 5% CO2. Similarly to fluorescence microscopy experiments, cells alone or incubated with BODIPY®-labeled BSA (ref) or BODIPY®-UBI devoid of the antennapedia cell penetrating sequence were used as negative control, whereas cells with BA-UBI [1] at 10 μM were used as positive control. After 2 h incubation, cells were washed 4 times with PBS at room temperature, and finally diluted 1:3 in PBS before subjected to FACS analysis. Along with the BODIPY® fluorophore the fluorescence intensity was recorded at 525±25 nm using the Gallios Flow cytometer (Beckman Coulter) to analyse each cells sample. Each internalization peptide was assessed by gating a population of 15,000 events and the data were analysed using Kaluza software version 1.2.
For determination of cellular uptake by flow cytometry, the BA-UBI-SAHND306-Q313 stapled peptide was first incubated with 2.2×10^5 70Z3-C3 cells in […] either at 4° C. or 37° C. for 2 h. Bodipy-labeled BSA, bodipy alone and bodipy-UBI were used as negative controls to verify the washing quality and efficient removal of any non-specific binding at the cell surface before FACS analysis. […] After 2 h of incubation, cells were washed four times with PBS at room temperature and diluted at 1:3 in PBS for FACS analysis. Samples were analyzed as previously described in the European patent (No: 15307137.8).

CC[C@H](C)[C@@H]1NC(=O)[C@@](C)(NC(=O)[C@H](C)NC(=O)[C@H](CCC(N)=O)NC(=O)[C@H](C)NC(=O)[C@H](CCCCN)NC(=O)[C@H](CC(C)C)NC(=O)[C@H](CSC2CC(=O)N(CC)C2=O)NC(C)=O)CCCC=CCCC[C@@](C)(C(=O)N[C@@H](CCCNC(=N)N)C(=O)N[C@@H](Cc2ccccc2)C(=O)N[C@@H](CCC(N)=O)C(=O)N[C@@H](C)C(=O)N[C@@H](CCC(=O)O)C(=O)N[C@@H](CCCNC(=N)N)C(=O)N[C@@H](Cc2c[nH]cn2)C(=O)N[C@@H](C)C(=O)N[C@@H](CCCNC(=N)N)C(=O)N[C@@H](CCC(=O)O)C(=O)N[C@@H](CCCCN)C(N)=O)NC(=O)[C@H](CCCCN)NC(=O)[C@H](Cc2ccc(O)cc2)NC1=O (some centres unmarked) (Ac-C(Succinimide(1-Et,3-yl))LKAQA[S5]IYK[S5]RFQAERHAREK-NH2; staple 7-11)
helicity (circular dichroism): 65 rel %

CCN1C(=O)CC(SC[C@H](NC(C)=O)C(=O)N[C@@H](CC(C)C)C(=O)N[C@@H](CCCCN)C(=O)N[C@@]2(C)CCCC=CCCC[C@@](C)(C(=O)N[C@@H](Cc3ccc(O)cc3)C(=O)N[C@@H](CCCCN)C(=O)N[C@@H](C)C(=O)N[C@@H](CCCNC(=N)N)C(=O)N[C@@H](Cc3ccccc3)C(=O)N[C@@H](CCC(N)=O)C(=O)N[C@@H](C)C(=O)N[C@@H](CCC(=O)O)C(=O)N[C@@H](CCCNC(=N)N)C(=O)N[C@@H](Cc3c[nH]cn3)C(=O)N[C@@H](C)C(=O)N[C@@H](CCCNC(=N)N)C(=O)N[C@@H](CCC(=O)O)C(=O)N[C@@H](CCCCN)C(N)=O)NC(=O)[C@H](CC(=O)O)NC(=O)[C@H](C)NC(=O)[C@H](CCC(N)=O)NC2=O)C1=O (some centres unmarked) (Ac-C(Succinimide(1-Et,3-yl))LK[S5]QAD[S5]YKARFQAERHAREK-NH2; staple 4-8)
helicity (circular dichroism): 70 rel %

CC[C@H](C)[C@@H]1NC(=O)[C@H](CC(=O)O)NC(=O)[C@H](C)NC(=O)[C@H](CCC(N)=O)NC(=O)[C@](C)(NC(=O)[C@H](CCCCN)NC(=O)[C@H](CC(C)C)NC(=O)[C@H](CSC2CC(=O)N(CC)C2=O)NC(C)=O)CCCCCC/C=C\CCC[C@@](C)(C(=O)N[C@@H](CCCNC(=N)N)C(=O)N[C@@H](Cc2ccccc2)C(=O)N[C@@H](CCC(N)=O)C(=O)N[C@@H](C)C(=O)N[C@@H](CCC(=O)O)C(=O)N[C@@H](CCCNC(=N)N)C(=O)N[C@@H](Cc2c[nH]cn2)C(=O)N[C@@H](C)C(=O)N[C@@H](CCCNC(=N)N)C(=O)N[C@@H](CCC(=O)O)C(=O)N[C@@H](CCCCN)C(N)=O)NC(=O)[C@H](CCCCN)NC(=O)[C@H](Cc2ccc(O)cc2)NC1=O (some centres unmarked) (Ac-C(Succinimide(1-Et,3-yl))LK[R8]QADIYK[S5]RFQAERHAREK-NH2; staple (Z) 4-11)
helicity (circular dichroism): 63 rel %

CC[C@H](C)[C@H](NC(=O)[C@H](CC(=O)O)NC(=O)[C@H](C)NC(=O)[C@H](CCC(N)=O)NC(=O)[C@H](C)NC(=O)[C@H](CCCCN)NC(=O)[C@H](CC(C)C)NC(=O)[C@H](CSC1CC(=O)N(CC)C1=O)NC(C)=O)C(=O)N[C@@H](Cc1ccc(O)cc1)C(=O)N[C@@H](CCCCN)C(=O)N[C@@H](C)C(=O)N[C@@H](CCCNC(=N)N)C(=O)N[C@@H](Cc1ccccc1)C(=O)N[C@@H](CCC(N)=O)C(=O)N[C@@H](C)C(=O)N[C@@H](CCC(=O)O)C(=O)N[C@@H](CCCNC(=N)N)C(=O)N[C@@H](Cc1c[nH]cn1)C(=O)N[C@@H](C)C(=O)N[C@@H](CCCNC(=N)N)C(=O)N[C@@H](CCC(=O)O)C(=O)N[C@@H](CCCCN)C(N)=O (some centres unmarked) (Ac-C(Succinimide(1-Et,3-yl))LKAQADIYKARFQAERHAREK-NH2)
helicity (circular dichroism): 42 rel %

CC(=O)N[C@@H](CSC1CC(=O)N(CCNC(=O)CCC2=[N+]3C(=Cc4c(C)cc(C)n4[B-]3(F)F)C=C2)C1=O)C(=O)N[C@@H](CCC(=O)O)C(=O)N[C@@H](CC(C)C)C(=O)N[C@@H](C)C(=O)N[C@@H](CCC(N)=O)C(=O)N[C@@H](CC(C)C)C(=O)N[C@@H](CCC(N)=O)C(=O)N[C@@H](C)C(=O)N[C@@H](CCC(=O)O)C(=O)N[C@@H](CC(C)C)C(=O)N[C@@H](CC(=O)O)C(=O)N[C@]1(C)CCCCCCC=CCCC[C@@](C)(C(=O)N[C@@H](CC(=O)O)C(=O)N[C@@H](CCCCN)C(=O)N[C@@H](CCC(N)=O)C(=O)N[C@@H](CCC(=O)O)C(=O)N[C@@H](CC(C)C)C(=O)N[C@@H](CCCNC(=N)N)C(=O)N[C@@H](CCCCN)C(=O)N[C@@H](CC(C)C)C(N)=O)NC(=O)[C@H](CCC(N)=O)NC(=O)[C@H](C(C)C)NC(=O)[C@H](C(C)C)NC(=O)[C@H](C)NC(=O)[C@H](CCC(N)=O)NC(=O)[C@H](C(C)C)NC1=O (single isomer, unassigned) [Co-SAHN I307-A314, ELAQLQAELDXVQAVVQXDKQELRKL, reference compound]
binding to CC2-LZ, in words (CC2-LZ domain of NEMO): does not interact
Kd (CC2-LZ domain of NEMO; fixed peptide concentration 10 μM, read-out: Binding affinity (FP) at 10 μM): > 10 mM
IC 50 NF-κB inhibition (NF-κB pathway): N.I*
NF-κB inhibition activity, in words (NF-κB pathway; LPS-induced NF-κB activation): does not inhibit
cell death [1]: no effect of cell death

CC[C@H](C)[C@@H]1NC(=O)[C@@](C)(NC(=O)[C@H](C)NC(=O)[C@H](CCC(N)=O)NC(=O)[C@H](C)NC(=O)[C@H](CCCCN)NC(=O)[C@H](CC(C)C)NC(=O)[C@H](CSC2CC(=O)N(CCNC(=O)CCC3=[N+]4C(=Cc5c(C)cc(C)n5[B-]4(F)F)C=C3)C2=O)NC(C)=O)CCCC=CCCC[C@@](C)(C(=O)N[C@@H](CCCNC(=N)N)C(=O)N[C@@H](Cc2ccccc2)C(=O)N[C@@H](CCC(N)=O)C(=O)N[C@@H](C)C(=O)N[C@@H](CCC(=O)O)C(=O)N[C@@H](CCCNC(=N)N)C(=O)N[C@@H](Cc2c[nH]cn2)C(=O)N[C@@H](C)C(=O)N[C@@H](CCCNC(=N)N)C(=O)N[C@@H](CCC(=O)O)C(=O)N[C@@H](CCCCN)C(N)=O)NC(=O)[C@H](CCCCN)NC(=O)[C@H](Cc2ccc(O)cc2)NC1=O (some centres unmarked) [UBI-SAHN D306-A310] (Ac-C(BODIPYFLEthylmaleimide)LKAQA[S5]IYK[S5]RFQAERHAREK-NH2; staple 7-11)
α-helical content at 1° C. [2]: 65%
ΔS [3]: −20 cal. mol^−1.K^−1
Tm ([3]; thermal denaturation by CD): 20 ± 0.3 C°
ΔH ([3]; van't Hoff enthalpy change at Tm): -5.79 kcal/mol
Binding affinity (FP) at 10 μM (CC2-LZ domain of NEMO; fixed peptide concentration 10 μM): Not detectable
IC 50 NF-κB inhibition (NF-κB pathway): N.I*
FACS peak median, first or only peak (70Z3-C3 cells): 1
FACS peak median, second peak (70Z3-C3 cells): 35
